Data published in ChEMBL document CHEMBL3639039, “Small molecule inhibitors of RGS proteins” (2014).
pIC50: −log10 of the molar value.

What was measured:
[1] = molecular target: Regulator of G-protein signaling 19 (Homo sapiens, UniProt P49795); assay: Inhibitory Assay: FCPIA Characterization of RGS Inhibitory Activity: CCG-50014 (FIG. 1) was originally identified as a potential inhibitor of RGS8 and RGS16 in a polyplex high throughput screen to identify inhibitors of the RGS-Gα interaction [4]. This activity was confirmed by analyzing the effect of CCG-50014 on several different RGS proteins with freshly reordered compound using multiplexed …
Regulator of G-protein signaling 19, sequence (P49795 whole entry, looked up, stated change not applied): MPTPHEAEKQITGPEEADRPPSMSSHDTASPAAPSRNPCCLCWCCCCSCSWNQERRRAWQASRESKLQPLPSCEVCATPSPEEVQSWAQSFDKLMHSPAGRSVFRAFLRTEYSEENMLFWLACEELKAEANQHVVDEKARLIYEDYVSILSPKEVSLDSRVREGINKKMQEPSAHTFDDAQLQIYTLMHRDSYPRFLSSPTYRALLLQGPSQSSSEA

[2] = molecular target: Regulator of G-protein signaling 16 (Homo sapiens, UniProt O15492); assay: as above
Regulator of G-protein signaling 16, sequence (O15492 whole entry, looked up, change not shown): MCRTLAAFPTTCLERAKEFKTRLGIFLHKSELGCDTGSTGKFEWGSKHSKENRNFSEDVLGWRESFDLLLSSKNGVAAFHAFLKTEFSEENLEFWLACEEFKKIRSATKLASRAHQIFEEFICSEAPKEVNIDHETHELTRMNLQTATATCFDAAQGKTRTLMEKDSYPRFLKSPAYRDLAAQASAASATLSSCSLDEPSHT

pIC50 [1]: 6.92 | pIC50 [2]: 5.46
SMILES: Cc1ccc(-n2sc(=O)n(Cc3ccc(F)cc3)c2=O)cc1
